# Positions of bridges follow the written chain, without caps; N, C: chain ends. Residues, ends and D or L forms follow the SMILES beside them.
# Assays:
# rNaV1.8 (rat NaV1.8) = rNaV1.8 (rat NaV1.8) (Rattus norvegicus, UniProt Q62968); test: cell-based
# mNaV1.9 (mouse NaV1.9) = molecular target: T1, mNaV1.9 (mouse NaV1.9) (Mus musculus, UniProt Q9R053); test: cell-based; details: NaV1.8-null mouse small DRG neurons, 300 nM TTX; 100-ms step to –40 mV from holding potential –110 mV; variable slope fit; room temperature; mean ± SEM; read-out: IC50 for inhibition of mNaV1.9 currents
# T1 construct: Representative current traces of mNaV1.9, recorded from the NaV1.8-null mouse small DRG neurons; endogenous in cells; host or cells: small DRG neurons of NaV1.8-null mice
# T1 sequence (Q9R053 whole entry): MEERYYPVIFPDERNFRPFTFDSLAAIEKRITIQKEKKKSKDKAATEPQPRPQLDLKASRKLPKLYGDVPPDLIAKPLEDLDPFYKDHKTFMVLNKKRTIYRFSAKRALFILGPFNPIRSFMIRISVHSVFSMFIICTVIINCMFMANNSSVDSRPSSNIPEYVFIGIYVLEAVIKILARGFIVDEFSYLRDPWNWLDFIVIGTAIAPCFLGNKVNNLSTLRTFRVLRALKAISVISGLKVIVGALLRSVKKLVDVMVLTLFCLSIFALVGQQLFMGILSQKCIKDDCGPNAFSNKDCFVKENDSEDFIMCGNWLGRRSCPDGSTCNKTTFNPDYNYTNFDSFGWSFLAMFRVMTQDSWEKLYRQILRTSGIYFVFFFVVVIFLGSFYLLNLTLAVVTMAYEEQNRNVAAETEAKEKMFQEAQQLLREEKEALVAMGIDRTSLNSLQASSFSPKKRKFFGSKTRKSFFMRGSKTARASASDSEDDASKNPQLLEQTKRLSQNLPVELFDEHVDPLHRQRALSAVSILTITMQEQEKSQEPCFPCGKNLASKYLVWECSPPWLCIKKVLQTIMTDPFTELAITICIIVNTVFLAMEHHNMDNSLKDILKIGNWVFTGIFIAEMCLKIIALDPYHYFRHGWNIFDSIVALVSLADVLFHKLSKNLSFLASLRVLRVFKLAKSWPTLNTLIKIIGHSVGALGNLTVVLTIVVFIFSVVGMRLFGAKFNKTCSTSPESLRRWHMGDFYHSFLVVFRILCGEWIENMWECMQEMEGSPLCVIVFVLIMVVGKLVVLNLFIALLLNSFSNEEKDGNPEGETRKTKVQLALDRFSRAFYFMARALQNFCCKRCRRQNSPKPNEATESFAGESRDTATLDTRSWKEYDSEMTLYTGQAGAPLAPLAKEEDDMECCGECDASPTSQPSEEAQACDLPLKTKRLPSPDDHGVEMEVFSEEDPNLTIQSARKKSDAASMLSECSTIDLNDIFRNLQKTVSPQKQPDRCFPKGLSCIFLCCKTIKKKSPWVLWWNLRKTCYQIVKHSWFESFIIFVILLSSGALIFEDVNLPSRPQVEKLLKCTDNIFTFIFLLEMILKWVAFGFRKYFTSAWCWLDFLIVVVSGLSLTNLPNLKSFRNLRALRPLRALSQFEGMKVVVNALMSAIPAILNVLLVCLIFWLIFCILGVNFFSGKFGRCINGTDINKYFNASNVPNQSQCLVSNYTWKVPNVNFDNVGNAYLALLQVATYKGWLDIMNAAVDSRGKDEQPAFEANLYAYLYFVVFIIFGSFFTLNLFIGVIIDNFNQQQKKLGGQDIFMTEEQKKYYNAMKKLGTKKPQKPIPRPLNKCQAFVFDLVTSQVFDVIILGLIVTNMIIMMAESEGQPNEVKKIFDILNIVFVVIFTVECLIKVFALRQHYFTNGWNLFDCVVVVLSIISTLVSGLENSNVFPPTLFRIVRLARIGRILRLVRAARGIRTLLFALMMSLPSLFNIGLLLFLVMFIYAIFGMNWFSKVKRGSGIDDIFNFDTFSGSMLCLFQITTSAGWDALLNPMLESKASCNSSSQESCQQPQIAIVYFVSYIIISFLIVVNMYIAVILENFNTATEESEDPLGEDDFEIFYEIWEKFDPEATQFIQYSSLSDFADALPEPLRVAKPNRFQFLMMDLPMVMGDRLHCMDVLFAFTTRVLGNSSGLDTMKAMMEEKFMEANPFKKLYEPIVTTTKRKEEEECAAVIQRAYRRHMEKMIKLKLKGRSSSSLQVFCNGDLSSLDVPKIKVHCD
# Chain of rNaV1.8 (rat NaV1.8) (Q62968 whole entry): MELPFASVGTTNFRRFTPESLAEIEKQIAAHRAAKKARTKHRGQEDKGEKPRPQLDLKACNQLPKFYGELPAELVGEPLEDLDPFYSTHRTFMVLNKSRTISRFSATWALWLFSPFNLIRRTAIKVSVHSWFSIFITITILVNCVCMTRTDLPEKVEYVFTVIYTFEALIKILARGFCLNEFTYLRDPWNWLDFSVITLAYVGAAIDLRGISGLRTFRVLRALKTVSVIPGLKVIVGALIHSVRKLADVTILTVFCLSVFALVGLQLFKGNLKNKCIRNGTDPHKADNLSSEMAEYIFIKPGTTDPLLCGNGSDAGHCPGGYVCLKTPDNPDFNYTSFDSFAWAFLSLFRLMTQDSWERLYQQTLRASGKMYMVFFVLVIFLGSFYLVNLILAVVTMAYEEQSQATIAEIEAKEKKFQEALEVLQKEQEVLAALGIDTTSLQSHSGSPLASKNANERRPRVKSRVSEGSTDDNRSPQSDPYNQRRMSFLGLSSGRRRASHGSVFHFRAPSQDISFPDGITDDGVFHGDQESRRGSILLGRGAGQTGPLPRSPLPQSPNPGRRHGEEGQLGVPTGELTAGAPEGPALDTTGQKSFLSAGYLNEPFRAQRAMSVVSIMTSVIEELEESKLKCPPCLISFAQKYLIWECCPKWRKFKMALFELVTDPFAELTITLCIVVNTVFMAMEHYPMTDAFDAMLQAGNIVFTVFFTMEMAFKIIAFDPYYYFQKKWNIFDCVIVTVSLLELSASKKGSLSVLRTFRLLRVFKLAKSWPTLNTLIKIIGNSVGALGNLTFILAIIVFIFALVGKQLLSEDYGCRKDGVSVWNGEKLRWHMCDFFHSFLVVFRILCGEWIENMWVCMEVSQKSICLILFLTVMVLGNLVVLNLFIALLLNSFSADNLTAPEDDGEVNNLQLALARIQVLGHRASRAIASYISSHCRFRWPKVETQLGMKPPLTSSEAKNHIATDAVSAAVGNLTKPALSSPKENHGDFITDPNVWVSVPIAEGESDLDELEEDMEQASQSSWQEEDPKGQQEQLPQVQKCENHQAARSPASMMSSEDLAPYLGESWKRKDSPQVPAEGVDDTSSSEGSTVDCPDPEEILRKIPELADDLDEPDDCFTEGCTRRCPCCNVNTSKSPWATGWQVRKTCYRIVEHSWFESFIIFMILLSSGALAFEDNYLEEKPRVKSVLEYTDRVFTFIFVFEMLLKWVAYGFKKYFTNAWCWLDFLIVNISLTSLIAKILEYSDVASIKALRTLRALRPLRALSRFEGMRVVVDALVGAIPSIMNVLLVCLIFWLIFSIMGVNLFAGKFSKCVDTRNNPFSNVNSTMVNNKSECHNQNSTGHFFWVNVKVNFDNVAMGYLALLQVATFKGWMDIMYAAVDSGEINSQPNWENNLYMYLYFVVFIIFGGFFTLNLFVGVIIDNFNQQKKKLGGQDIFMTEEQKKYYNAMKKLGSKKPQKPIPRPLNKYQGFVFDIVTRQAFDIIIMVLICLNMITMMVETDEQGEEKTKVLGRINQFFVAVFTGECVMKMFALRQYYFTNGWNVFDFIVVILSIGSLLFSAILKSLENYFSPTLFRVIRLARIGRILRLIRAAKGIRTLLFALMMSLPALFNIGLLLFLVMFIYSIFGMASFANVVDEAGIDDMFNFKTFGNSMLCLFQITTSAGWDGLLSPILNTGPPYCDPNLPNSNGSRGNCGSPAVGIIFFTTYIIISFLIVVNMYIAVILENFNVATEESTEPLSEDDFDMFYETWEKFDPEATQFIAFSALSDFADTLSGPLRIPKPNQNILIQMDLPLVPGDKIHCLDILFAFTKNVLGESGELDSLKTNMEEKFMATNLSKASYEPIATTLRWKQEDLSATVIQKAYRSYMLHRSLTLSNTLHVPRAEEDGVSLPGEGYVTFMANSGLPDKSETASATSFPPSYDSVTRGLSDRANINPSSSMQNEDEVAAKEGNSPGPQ
smiles,measurement,setting,value
"CC[C@H](C)[C@H](NC(=O)[C@H](CCSC)NC(=O)[C@@H]1CCCN1C(=O)[C@@H](NC(=O)[C@@H]1CSSC[C@@H]2NC(=O)[C@H](CCC(=O)O)NC(=O)[C@H](Cc3c[nH]c4ccccc34)NC(=O)[C@H](Cc3ccc(O)cc3)NC(=O)[C@H](CCC(=O)O)NC(=O)[C@H](CCCCN)NC(=O)[C@@H](NC(=O)[C@H](C)N)CSSC[C@H](NC(=O)[C@H](Cc3ccccc3)NC(=O)[C@H](CC(C)C)NC(=O)[C@H](Cc3ccccc3)NC(=O)[C@H](C)NC(=O)CNC2=O)C(=O)N[C@@H]([C@@H](C)CC)C(=O)N[C@@H](CCC(=O)O)C(=O)NCC(=O)N[C@@H]([C@@H](C)CC)C(=O)N1)C(C)C)C(N)=O [HSTX-I] (H-ACKEYWECGAFLFCIEGICVPMI-NH2; disulfide 2-14, 8-19)",IC50,rNaV1.8 (rat NaV1.8),~2.44 µM
same,IC50,mNaV1.9 (mouse NaV1.9),~3.3 µM

# — PMC5845541, “Novel Sodium Channel Inhibitor From Leeches” (Frontiers in Pharmacology, 2018)
